In the NIST ThermoML archive (doi:10.1021/acs.jced.5b00860):

Settings: for surface tension liquid-gas: Maximal bubble pressure; for viscosity / mass density / electrical conductivity: 101.33 kPa, Liquid; for viscosity: Concentric cylinders viscometry; for mass density: Vibrating tube method; for electrical conductivity: Alternating current cell with electrodes

CCn1cc[n+](C)c1C.O=S(=O)([O-])O [1-ethyl-2,3-dimethylimidazolium hydrogen sulfate]
Settings | electrical conductivity [S/m] | mass density [kg/m3] | surface tension liquid-gas [mN/m] | viscosity [mPa·s]
288.15 K | – | 1261.94 | 50.4 | 375
293.15 K | – | 1258.09 | 50.1 | 263.6
298.15 K | 0.15 | 1254.43 | 49.8 | 186
303.15 K | 0.193 | 1250.77 | 49.5 | 134.9
308.15 K | 0.244 | 1247.08 | 49.3 | 98.41
313.15 K | 0.308 | 1243.3 | 49 | 72.94
318.15 K | 0.377 | 1239.59 | 48.7 | 53.72
323.15 K | 0.458 | 1235.8 | 48.4 | 40.12
328.15 K | 0.554 | 1232.2 | 48.1 | 30.2
333.15 K | 0.665 | 1228.52 | 47.8 | 22.37
338.15 K | 0.787 | 1224.82 | 47.5 | 17.96
343.15 K | 0.925 | 1221.18 | 47.2 | 12.57

CCCCCn1cc[n+](C)c1.O=C([O-])O [3-methyl-1-pentylimidazolium hydrogen carbonate]
Settings | electrical conductivity [S/m] | mass density [kg/m3] | surface tension liquid-gas [mN/m] | viscosity [mPa·s]
288.15 K | 0.143 | 1148.91 | 31.9 | 179.6
293.15 K | 0.193 | 1145.21 | 31.4 | 138.9
298.15 K | 0.248 | 1141.79 | 30.9 | 108.6
303.15 K | 0.305 | 1138.28 | 30.4 | 85.09
308.15 K | 0.367 | 1134.77 | 29.9 | 66.77
313.15 K | 0.428 | 1131.33 | 29.4 | 53.12
318.15 K | 0.489 | 1127.75 | 29 | 42.53
323.15 K | 0.553 | 1124.28 | 28.5 | 33.29
328.15 K | 0.612 | 1120.73 | 28 | 26.92
333.15 K | 0.671 | 1117.27 | 27.5 | 21.42
338.15 K | 0.733 | 1113.75 | 26.9 | 17.65
343.15 K | 0.794 | 1110.3 | 26.5 | 14.71

CCCn1cc[n+](C)c1C.O=S(=O)([O-])O [2,3-dimethyl-1-propylimidazolium hydrogen sulfate]
Settings | electrical conductivity [S/m] | mass density [kg/m3] | surface tension liquid-gas [mN/m] | viscosity [mPa·s]
288.15 K | – | 1239.79 | 47.7 | 500.4
293.15 K | – | 1236.23 | 47.4 | 362.3
298.15 K | 0.123 | 1232.82 | 47.2 | 263.7
303.15 K | 0.162 | 1229.24 | 46.9 | 194.2
308.15 K | 0.211 | 1225.73 | 46.6 | 142.2
313.15 K | 0.267 | 1222.13 | 46.3 | 107
318.15 K | 0.333 | 1218.82 | 46.1 | 81.27
323.15 K | 0.409 | 1215.29 | 45.8 | 62.04
328.15 K | 0.496 | 1211.74 | 45.5 | 47.83
333.15 K | 0.6 | 1208.35 | 45.2 | 35.71
338.15 K | 0.711 | 1204.81 | 44.9 | 27.47
343.15 K | 0.832 | 1201.46 | 44.7 | 21.17

CCCCn1cc[n+](C)c1.O=P([O-])(O)O [1-butyl-3-methylimidazolium dihydrogen phosphate]
Settings | electrical conductivity [S/m] | mass density [kg/m3] | surface tension liquid-gas [mN/m] | viscosity [mPa·s]
288.15 K | 0.303 | 1183.24 | 44.2 | 198.7
293.15 K | 0.359 | 1179.91 | 43.9 | 159
298.15 K | 0.419 | 1176.54 | 43.6 | 125.6
303.15 K | 0.483 | 1173.18 | 43.2 | 101.1
308.15 K | 0.555 | 1169.69 | 42.9 | 80.78
313.15 K | 0.628 | 1166.3 | 42.6 | 65.21
318.15 K | 0.707 | 1162.8 | 42.3 | 53.62
323.15 K | 0.788 | 1159.53 | 42 | 43.67
328.15 K | 0.868 | 1156.13 | 41.7 | 36.75
333.15 K | 0.965 | 1152.67 | 41.4 | 29.77
338.15 K | 1.06 | 1149.36 | 41.1 | 25.21
343.15 K | 1.16 | 1146.03 | 40.8 | 20.96

CCCCn1cc[n+](C)c1C.O=S(=O)([O-])O [1-butyl-2,3-dimethylimidazolium hydrogen sulfate]
Settings | electrical conductivity [S/m] | mass density [kg/m3] | surface tension liquid-gas [mN/m] | viscosity [mPa·s]
288.15 K | – | 1217.09 | 45.3 | 628.5
293.15 K | – | 1213.74 | 45 | 469.7
298.15 K | 0.1 | 1210.61 | 44.8 | 355.2
303.15 K | 0.135 | 1207.35 | 44.5 | 271.3
308.15 K | 0.179 | 1203.89 | 44.2 | 206.3
313.15 K | 0.231 | 1200.63 | 43.9 | 157.2
318.15 K | 0.292 | 1197.49 | 43.7 | 121.8
323.15 K | 0.36 | 1194.03 | 43.4 | 95.86
328.15 K | 0.441 | 1190.8 | 43.1 | 74.49
333.15 K | 0.531 | 1187.57 | 42.8 | 60.7
338.15 K | 0.631 | 1184.29 | 42.6 | 46.52
343.15 K | 0.739 | 1180.99 | 42.3 | 38.13
